Reference: patent publication US20180271891A1, “SELECTIVE TREATMENT OF PRMT5 DEPENDENT CANCER” (THE BROAD INSTITUTE INC., priority 2015, published 2018)

What was measured:
[1] = test system: MTAP− and MTAP+ cell lines (isogenic pairs); test: Cell viability IC50 measurement (Cell Titer-Glo); type: cell-based
Experimental: Applicants tested the ability of these inhibitors to selectively impair viability of parental MTAP− cell lines compared to isogenic lines expressing MTAP, as well as parental MTAP+ cell lines compared to isogenic CRISPR-mediated MTAP knockout lines (FIG. 17).
Cell plating densities were determined by evaluating the number of cells required to achieve 70% confluency after 12 days in culture. Cells were seeded in 100 μL of media in 96-well plates (excluding wells in the first or last row or column) using the following densities in cells per well: LU99 at 360, H647 at 100, SF-172 at 35, SU8686 at 250, MIAPACA2 at 135, H838 at 73, H2126 at 1042, HCC44 at 62, KP2 at 292, H661 at 166, and H2030 at 250. Isogenic cell line pairs were seeded at the same densities for all experiments.
Drug was administered using the HP D300 digital dispenser (Hewlett-Packard). […] Media and drug were changed every 4 days.
Isogenic cell line pairs were plated and cultured in parallel for the same time period. Luminescence was measured according to the manufacturer's instructions using the EnVision Multilabel Reader (Perkin Elmer). Luminescence data from each well was normalized to luminescence from wells containing untreated cells on that same plate. IC50 was calculated by non-linear regression using the ‘log(inhibitor) vs. response (three parameters) analysis in GraphPad Prism 6.

PRMT5 = PRMT5 (Homo sapiens, UniProt O14744); details: cited from earlier work
Sequence of PRMT5 (O14744 whole entry): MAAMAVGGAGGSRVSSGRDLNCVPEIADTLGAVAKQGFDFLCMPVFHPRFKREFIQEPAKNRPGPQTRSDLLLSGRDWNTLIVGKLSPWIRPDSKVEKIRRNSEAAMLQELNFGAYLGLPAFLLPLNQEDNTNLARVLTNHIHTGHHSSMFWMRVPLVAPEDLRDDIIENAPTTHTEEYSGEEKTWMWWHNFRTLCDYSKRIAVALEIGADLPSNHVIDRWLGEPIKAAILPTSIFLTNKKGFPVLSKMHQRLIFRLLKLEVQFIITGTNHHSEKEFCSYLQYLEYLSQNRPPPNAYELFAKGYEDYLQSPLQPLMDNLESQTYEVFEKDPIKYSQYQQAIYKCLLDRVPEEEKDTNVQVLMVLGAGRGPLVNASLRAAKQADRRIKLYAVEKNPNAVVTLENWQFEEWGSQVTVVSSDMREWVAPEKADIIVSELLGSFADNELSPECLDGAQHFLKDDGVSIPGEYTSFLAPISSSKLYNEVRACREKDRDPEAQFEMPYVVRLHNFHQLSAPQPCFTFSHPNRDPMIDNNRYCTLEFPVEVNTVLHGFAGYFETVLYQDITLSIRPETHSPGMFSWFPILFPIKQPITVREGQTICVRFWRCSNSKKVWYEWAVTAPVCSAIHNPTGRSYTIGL
Sequence of PRMT5 (Q9BQA1 whole entry partner): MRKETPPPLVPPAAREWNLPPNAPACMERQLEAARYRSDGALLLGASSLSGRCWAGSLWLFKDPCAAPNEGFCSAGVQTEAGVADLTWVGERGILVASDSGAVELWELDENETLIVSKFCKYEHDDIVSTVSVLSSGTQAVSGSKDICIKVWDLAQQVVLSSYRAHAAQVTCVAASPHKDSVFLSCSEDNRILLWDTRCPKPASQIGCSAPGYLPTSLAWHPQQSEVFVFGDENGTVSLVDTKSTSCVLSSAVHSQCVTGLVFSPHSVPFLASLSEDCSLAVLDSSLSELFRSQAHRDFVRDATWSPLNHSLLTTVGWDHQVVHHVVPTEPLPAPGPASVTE

## O=C(NC[C@H](O)CN1CCc2ccccc2C1)c1cc(NC2COC2)ncn1 [EPZ015666]
[1]; SF-172 isogenic pair
  differential sensitivity between isogenic MTAP− and MTAP+ cells: absent altogether
[1]; parental MTAP+ vs MTAP− cell lines
  difference in mean IC50 values between MTAP+ and MTAP− cell lines: did not observe significant differences
PRMT5
  mode of inhibition of PRMT5: peptide-competitive and SAM-cooperative
